This is an account of results in publication PMC4658139 (PLoS ONE, 2015).

Read-outs that look alike come from different tables or passages of the source.

Data set [1] relates to PBCEC monolayer. The format is cell-based, porcine.
Data set [2] has as its system PBCEC monolayer.
The subject of data set [3] is porcine brain capillary endothelial cells (PBCEC).
The conditions of data set [4]: pig, in vivo, 0.6 mg; cited from earlier work.
For data set [5] the following is noted: pig, in vivo; cited from earlier work.
Data set [6] relates to Sprague-Dawley rats. The settings on record: rat, in vivo, po; cited from earlier work.
Data set [7] deals with PBCEC monolayer. Particulars: pig.
Another data set concerns dendric cells. The settings on record: cited from earlier work.
In data set [8] the test system is PBCEC monolayer. The settings on record: pig. This is another data set of the same source.
The subject of another data set is macrophages. Particulars: cited from earlier work.
Data set [9] relates to Sprague-Dawley rats. The settings on record: rat, in vivo, po; cited from earlier work. This is another data set of the same source.
A short description of the next data set: in vitro. Particulars: pig.
Data set [10] has as its system normal human astrocytes (NHA). The settings on record: read-out: IC50, cytotoxic effects; cited from earlier work.

`CC(=O)O[C@@H]1C[C@]2(C)[C@@]3(CO)[C@H](O)C(=O)C(C)=C[C@H]3O[C@H]1[C@@]21CO1` [3-AcDON, 3-acetyldeoxynivalenol]: in the data set with PBCEC monolayer [1], the “change of electrical capacitance c CL, in words” value was “Neither 3-AcDON, nor MON showed significant changes” and the “relative TEER after 48 h” value is 63±9%. Moreover, in the data set with PBCEC monolayer [2] (pig), the “concentration in the apical compartment” value was determined as 174 ± 20 nM; the “concentration in the basolateral compartment” value was determined as 198 ± 16 nM; the “enrichment in one compartment / active transport, in words” value is “an active transfer or a noteworthy enrichment of DON or 3-AcDON can be excluded”. In addition, the “effect in CCK-8 assay (dehydrogenase activity), in words” value in [3] is reported as “significant increase in dehydrogenase activity”.
Turning to `CC1=C[C@H]2O[C@@H]3[C@H](O)C[C@](C)([C@@]2(CO)[C@H](O)C1=O)[C@]31CO1` [DON, deoxynivalenol], the systemic bioavailability in data set [4] is on record as 48–65%. For the same compound, the “time of maximum concentration in CSF and blood” value in data set [5] is 4.5 h. In addition, the “electrical capacitance c CL after 48 h” value in the data set with PBCEC monolayer [1] was 81±2%. The “enrichment in one compartment / active transport, in words” value in the data set with PBCEC monolayer [2] is “no enrichment in the apical or the basolateral compartment was detected”. Moreover, in the data set on PBCEC monolayer [2] (pig), the “concentration in the apical compartment” value was found to be 211 ± 15 nM and the “concentration in the basolateral compartment” value is 199 ± 14 nM. For the same compound, the “effect in CCK-8 assay (dehydrogenase activity), in words” value in data set [3] was “significant increase in dehydrogenase activity”.
With `O=c1cc(O)c1=O` [MON, moniliformin], in the data set on Sprague-Dawley rats [6], the LD50 cut-off value is reported as 25 mg/kg body weight, the “administered dose detected in urine” value is given as 38%, the “total recovery in feces” value is reported as “less than 1%” and the “total recovery in urine” value was 42%. The “p c(14C sucrose), sucrose permeability of the monolayer after mycotoxin incubation” value in the data set with PBCEC monolayer [7] is reported as 0.19±0.05. Besides, the “reduction of cellular viability” value with dendric cells is recorded as 20%. In addition, in the data set on PBCEC monolayer [8], the “amount detected in the basolateral compartment” value is given as 27±6% and the “amount recovered in the apical compartment” value amounted to 76±12%. Also, the “effect on viability of macrophages, in words” value in the data set on macrophages is listed as “does not reduce the viability of macrophages”. Moreover, in the data set on PBCEC monolayer [1], the “change of electrical capacitance c CL, in words” value is “Neither 3-AcDON, nor MON showed significant changes” and the “relative TEER after 48 h” value is reported as 94±15%. Also, in the data set on Sprague-Dawley rats [9], the “administered dose detected in feces” value is listed as 2%, the “administered dose excreted via urine” value is given as 20.2-31.5% and the “lowest observed adverse effect level (LOAEL)” value is reported as 3 mg/kg body weight. Besides, in the data set on PBCEC monolayer [2], the “enrichment in one compartment / active transport, in words” value was “not enriched in any compartment”. Also, in the data set with PBCEC monolayer [2] (pig), the “concentration in the apical compartment” value stood at 237 ± 23 nM and the “concentration in the basolateral compartment” value amounted to 228 ± 27 nM. In data set [3], the “effect on cellular viability, in words” value is listed as “no significant effects on the cellular viability”. This compound also returned a Papp A→B in the data set “in vitro” of 1.07 ± 0.23 ×10⁻⁶ cm/s.
As to `CC(=O)OC[C@]12C[C@H](OC(=O)CC(C)C)C(C)=C[C@H]1O[C@@H]1[C@H](O)[C@@H](OC(C)=O)[C@@]2(C)[C@]12CO2` [T-2 toxin, reference compound], the cellular viability in [3] (10 µM) was < 2%. For the same compound, the IC50 in data set [10] was 24 ± 4.5 nM.

Broadly, the Papp A→B is how fast a substance crosses the layer from the apical side. By IC50 is commonly meant the concentration at which inhibition is half-maximal.
